Data as given in patent US4058659A, “6,8-Disubstituted purine derivatives of 9-β-D-ribofuranosyl 3',5'-cyclic phosphate” (ICN Pharmaceuticals, Inc., priority 1975, dated 1977).
Counter-ions that a name gives are not always drawn.

How the values were obtained:
protein kinase = assay: Protein kinase activation relative to cyclic AMP; type: biochemical; conditions: compared with cyclic AMP
adenyl cyclase = assay: Inhibition of adenyl cyclase function; type: biochemical
phosphodiesterase = assay: Phosphodiesterase inhibition; type: biochemical
[1] = Antihypertensive properties in in vivo animal testing
[2] = Anti-inflammatory activity in in vivo animal testing
[3] = test system: isolated cat papillary muscle; assay: Positive inotropic effect: % change in contractile force in isolated cat papillary muscle; conditions: for activation at 1 µg/mL: 1.0 μg/ml; for activation at 3.1 µg/mL: 3.1 μg/ml; for activation at 10 µg/mL: 10.0 μg/ml; for activation at 31 µg/mL: 31.0 μg/ml; for activation at 100 µg/mL: 100 μg/ml; for activation at 310 µg/mL: 310 μg/ml; for positive inotropic effect: statement in words, isolated cat papillary muscle
[4] = Felis catus, read-out: % change in Contractile Force (CF)

## CC(=O)O[C@@H]1[C@@H]2OP(=O)(O)OC[C@H]2O[C@H]1n1c(Cl)nc2c(Cl)ncnc21 [Compound 2a, 2'-O-Acetyl-6,8-dichloro-9-β-D-ribofuranosylpurine 3',5'-Cyclic Phosphate Sodium Salt]
Protein kinase
  protein kinase activation: superior to cyclic AMP
Adenyl cyclase
  inhibition of adenyl cyclase function: inhibit adenyl cyclase function

## CCCC(=O)O[C@@H]1[C@@H]2OP(=O)(O)OC[C@H]2O[C@H]1n1c(Cl)nc2c(Cl)ncnc21 [Compound 2b, 2'-O-Butyryl-6,8-dichloro-9-β-D-ribofuranosylpurine 3',5'-Cyclic Phosphate Sodium Salt]
Protein kinase
  protein kinase activation: superior to cyclic AMP
Adenyl cyclase
  inhibition of adenyl cyclase function: inhibit adenyl cyclase function

## Nc1nc2c(Cl)ncnc2n1[C@@H]1O[C@@H]2COP(=O)(O)O[C@H]2[C@H]1O [Compound 4, 8-Amino-6-chloro-9-β-D-ribofuranosylpurine 3',5'-Cyclic Phosphate]
phosphodiesterase
  inhibition of phosphodiesterase: inhibit phosphodiesterase markedly
Protein kinase
  protein kinase activation: superior to cyclic AMP

## Nc1nc2c(S)ncnc2n1[C@@H]1O[C@@H]2COP(=O)(O)O[C@H]2[C@H]1O [Compound 6, 8-Amino-9-β-D-ribofuranosyl-6-thiopurine 3',5'-Cyclic Phosphate]
phosphodiesterase
  inhibition of phosphodiesterase: inhibit phosphodiesterase markedly

## CCN(CC)c1ncnc2c1nc(Cl)n2[C@@H]1O[C@@H]2COP(=O)(O)O[C@H]2[C@H]1O [Compound 9, 8-Chloro-6-(diethylamino)-9-β-D-ribofuranosylpurine 3',5'-Cyclic Phosphate]
phosphodiesterase
  inhibition of phosphodiesterase: inhibit phosphodiesterase markedly
Protein kinase
  protein kinase activation: superior to cyclic AMP

## CCN(CC)c1nc2c(Cl)ncnc2n1[C@@H]1O[C@@H]2COP(=O)(O)O[C@H]2[C@H]1O [Compound 10, 6-Chloro-8-(diethylamino)-9-β-D-ribofuranosylpurine 3',5'-Cyclic Phosphate]
phosphodiesterase
  inhibition of phosphodiesterase: inhibit phosphodiesterase markedly

## CCN(CC)c1ncnc2c1nc(N(CC)CC)n2[C@@H]1O[C@@H]2COP(=O)(O)O[C@H]2[C@H]1O [Compound 11, 6,8-Bis-(diethylamino)-9-β-D-ribofuranosylpurine 3',5'-Cyclic Phosphate]
phosphodiesterase
  inhibition of phosphodiesterase: inhibit phosphodiesterase markedly
[1]
  antihypertensive properties: displayed antihypertensive properties
Adenyl cyclase
  inhibition of adenyl cyclase function: inhibit adenyl cyclase function

## CC(=O)O[C@@H]1[C@@H]2OP(=O)(O)OC[C@H]2O[C@H]1n1c(SCc2ccccc2)nc2c(Cl)ncnc21 [Compound 13, 2'-o-acetyl-8-(benzylthio)-6-chloro-9-β-D-ribofuranosylpurine 3',5'-Cyclic Phosphate Sodium Salt]
phosphodiesterase
  inhibition of phosphodiesterase: inhibit phosphodiesterase markedly

## O=P1(O)OC[C@H]2O[C@@H](n3c(SCc4ccccc4)nc4c(SCc5ccccc5)ncnc43)[C@H](O)[C@@H]2O1 [Compound 14, 6,8-Bis-(benzylthio)-9-D-ribofuranosylpurine 3',5'-Cyclic Phosphate Sodium Salt]
phosphodiesterase
  inhibition of phosphodiesterase: inhibit phosphodiesterase markedly

## CCN(CC)c1ncnc2c1nc(SCc1ccccc1)n2[C@@H]1O[C@@H]2COP(=O)(O)O[C@H]2[C@H]1O [Compound 15, 8-(Benzylthio)-6-(diethylamino)-9-β-D-ribofuranosylpurine 3',5'-CyclicPhosphate]
phosphodiesterase
  inhibition of phosphodiesterase: inhibit phosphodiesterase markedly

## O=P1(O)OC[C@H]2O[C@@H](n3c(SCc4ccccc4)nc4c(N5CCCCC5)ncnc43)[C@H](O)[C@@H]2O1 [Compound 16, 8-(Benzylthio)-6-piperidino-9-β-D-ribofuranosylpurine 3',5'-Cyclic Phosphate]
phosphodiesterase
  inhibition of phosphodiesterase: inhibit phosphodiesterase markedly
[2]
  anti-inflammatory activity: displayed anti-inflammatory activity
Adenyl cyclase
  inhibition of adenyl cyclase function: inhibit adenyl cyclase function

## CCCCNc1ncnc2c1nc(SCc1ccccc1)n2[C@@H]1O[C@@H]2COP(=O)(O)O[C@H]2[C@H]1O [Compound 17, 8-(Benzylthio)-6-(n-butylamino)-9-β-D-ribofuranosylpurine 3',5'-CyclicPhosphate]
phosphodiesterase
  inhibition of phosphodiesterase: inhibit phosphodiesterase markedly
[3]; [4]
  activation at 1 µg/mL: 7.5%
  activation at 3.1 µg/mL: 10%
  activation at 10 µg/mL: 19.3%
  activation at 31 µg/mL: 24%
  activation at 100 µg/mL: 30%
  activation at 310 µg/mL: 39%
[3]
  positive inotropic effect: exhibit positive inotropic effect

## O=P1(O)OC[C@H]2O[C@@H](n3c(SCc4ccccc4)nc4c(N5CCCC5)ncnc43)[C@H](O)[C@@H]2O1 [Compound 18, 8-(Benzylthio)-6-pyrrolidino-9-β-D-ribofuranosylpurine 3',5'-Cyclic Phosphate]
phosphodiesterase
  inhibition of phosphodiesterase: inhibit phosphodiesterase markedly

## CCNc1ncnc2c1nc(SCc1ccccc1)n2[C@@H]1O[C@@H]2COP(=O)(O)O[C@H]2[C@H]1O [Compound 19, 8-(Benzylthio)-6-(ethylamino)-9-β-D-ribofuranosylpurine 3',5'-Cyclic Phosphate]
phosphodiesterase
  inhibition of phosphodiesterase: inhibit phosphodiesterase markedly
[3]; [4]
  activation at 1 µg/mL: 9%
  activation at 3.1 µg/mL: 11%
  activation at 10 µg/mL: 17%
  activation at 31 µg/mL: 28%
  activation at 100 µg/mL: 45%
  activation at 310 µg/mL: 88%
[3]
  positive inotropic effect: exhibit positive inotropic effect

## CCCNc1ncnc2c1nc(SCc1ccccc1)n2[C@@H]1O[C@@H]2COP(=O)(O)O[C@H]2[C@H]1O [Compound 20, 8-(Benzylthio)-6-n-propylamino-9-β-D-ribofuranosylpurine 3',5'-Cyclic Phosphate]
[3]; [4]
  activation at 310 µg/mL: 30%
[3]; Felis catus, 500 μg/ml, read-out: % change in Contractile Force (CF)
  activation at 500 µg/mL: 50%
[3]
  positive inotropic effect: exhibit positive inotropic effect

## CN(C)c1ncnc2c1nc(SCc1ccccc1)n2[C@@H]1O[C@@H]2COP(=O)(O)O[C@H]2[C@H]1O [Compound 24, 8-(Benzylthio)-6-dimethylamino-9-β-D-ribofuranosylpurine 3',5'-Cyclic Phosphate]
[3]; [4]
  activation at 1 µg/mL: 4%
  activation at 3.1 µg/mL: 9%
  activation at 10 µg/mL: 13%
  activation at 31 µg/mL: 18%
  activation at 100 µg/mL: 45%
  activation at 310 µg/mL: 118%
[3]
  positive inotropic effect: exhibit positive inotropic effect

## CCCCNc1ncnc2c1nc(SC)n2[C@@H]1O[C@@H]2COP(=O)(O)O[C@H]2[C@H]1O [Compound 30, 6-n-Butylamino-8-(methylthio)-9-β-D-ribofuranosylpurine 3',5'-Cyclic Phosphate]
Protein kinase
  protein kinase activation: superior to cyclic AMP

## O=P1(O)OC[C@H]2O[C@@H](n3c(Sc4ccc(Cl)cc4)nc4c(N5CCCCC5)ncnc43)[C@H](O)[C@@H]2O1 [Compound 34, 8-(p-Chlorophenylthio)-6-piperidino-9-β-D-ribofuranosylpurine 3',5'-Cyclic Phosphate]
phosphodiesterase
  inhibition of phosphodiesterase: inhibit phosphodiesterase markedly

## CCN(CC)c1ncnc2c1nc(Sc1ccc(Cl)cc1)n2[C@@H]1O[C@@H]2COP(=O)(O)O[C@H]2[C@H]1O [Compound 35, 8-(p-Chlorophenylthio)-6-(diethylamino)-9-β-D-ribofuranosylpurine 3',5'-Cyclic Phosphate]
phosphodiesterase
  inhibition of phosphodiesterase: inhibit phosphodiesterase markedly

## CCCCNc1ncnc2c1nc(Sc1ccc(Cl)cc1)n2[C@@H]1O[C@@H]2COP(=O)(O)O[C@H]2[C@H]1O [Compound 36, 6-n-Butylamino-8-(p-chlorophenylthio)-9-β-D-ribofuranosylpurine 3',5'-Cyclic Phosphate]
[3]; [4]
  activation at 1 µg/mL: 9.8%
  activation at 3.1 µg/mL: 15%
  activation at 10 µg/mL: 52.7%
  activation at 31 µg/mL: 62.3%
  activation at 100 µg/mL: 29.4%
  activation at 310 µg/mL: 101%
[3]
  positive inotropic effect: exhibit positive inotropic effect

## O=P1(O)OC[C@H]2O[C@@H](n3c(Sc4ccc(Cl)cc4)nc4c(Nc5ccccc5)ncnc43)[C@H](O)[C@@H]2O1 [Compound 37, 6-Anilino-8-(p-chlorophenylthio)-9-β-D-ribofuranosylpurine 3',5'-Cylic Phosphate]
[3]; [4]
  activation at 1 µg/mL: 2%
  activation at 3.1 µg/mL: 10.3%
  activation at 10 µg/mL: 31.3%
  activation at 31 µg/mL: 50.2%
  activation at 100 µg/mL: 74.5%
  activation at 310 µg/mL: 82.3%
[3]
  positive inotropic effect: exhibit positive inotropic effect

## O=P1(O)OC[C@H]2O[C@@H](n3c(Br)nc4c(NCc5ccccc5)ncnc43)[C@H](O)[C@@H]2O1 [Compound 42, 6-(Benzylamino)-8-bromo-9-β-D-ribofuranosylpurine 3',5'-Cyclic Phosphate]
phosphodiesterase
  inhibition of phosphodiesterase: inhibit phosphodiesterase markedly

## CSc1nc2c(NCc3ccccc3)ncnc2n1[C@@H]1O[C@@H]2COP(=O)(O)O[C@H]2[C@H]1O [Compound 43, 6-(Benzylamino)-8-(methylthio)-9-β-D-ribofuranosylpurine 3',5'-Cyclic Phosphate]
phosphodiesterase
  inhibition of phosphodiesterase: inhibit phosphodiesterase markedly

## O=P1(O)OC[C@H]2O[C@@H](n3c(SCc4ccccc4)nc4c(NCc5ccccc5)ncnc43)[C@H](O)[C@@H]2O1 [Compound 44, 6-(Benzylamino)-8-(benzylthio)-9-β-D-ribofuranosylpurine 3',5'-Cyclic Phosphate]
phosphodiesterase
  inhibition of phosphodiesterase: inhibit phosphodiesterase markedly

## CN(C)c1nc(N)nc2c1nc(Cl)n2[C@@H]1O[C@@H]2COP(=O)(O)O[C@H]2[C@H]1O [Compound 56, 2-Amino-8-chloro-6-dimethylamino-9-β-D-ribofuranosylpurine 3',5'-Cyclic Phosphate]
phosphodiesterase
  inhibition of phosphodiesterase: inhibit phosphodiesterase markedly
